Data taken from US9164075B2, “Glutathione alkylester isotopologue and method for detecting reactive metabolite” (priority 2011, dated 2015).

Tests used:
[1] = rat, 60 min, 10 μmol/L, pH 7.4
Procedure: Glutathione ethyl ester (1 mmol/L, 1 μmol) was used as the trapping agent instead of the mixture of glutathione ethyl ester (GSHEE) and glutathione ethyl ester-d5 (GSHEE-d5), and the reaction and measurement were performed in the same manner as in (step 1) and (step 2) described above.
In the MS/MS measurement corresponding to (step 2-3), the MS/MS measurement was performed in a data dependent scan mode in which ions with the strongest intensity in a first spectrum were subjected to collisional activation to thereby obtain a second spectrum. The measurement conditions used are as follows (measurement conditions C).

[2] = for NUMBER OF IDENTIFIED REACTIVE METABOLITES (EXAMPLES): rat, 60 min, 10 μmol/L, pH 7.4
Procedure: (§1) NADPH (20 mmol/L, […]) was added to the pre-incubated incubation mixture and a reaction (incubation) was started. The final incubation volume was 1 mL. A sample containing no object compound was used as a control.
(§2) After incubation at 37° C. for 60 minutes, a 50 mmol/L aqueous dithiothreitol solution (100 μL, 5 μmol) was added to the incubation mixture, and the resultant mixture was subjected to centrifugation at 10,000 g for 5 minutes. The centrifugation supernatant was added to a solid phase extraction column (OASIS HLB 1 cc, 30 mg) that was pre-washed with 1 mL of methanol and activated with 1 mL of purified water. The column was washed with 1 mL of water and 1 mL of 5% methanol solution, and a reaction product was eluted with 1 mL of methanol. The solvent was removed by evaporation under nitrogen flow, and the residue was dissolved in 150 μL of acetonitrile:water (2:8) to prepare an analysis sample.
(§3) An AQCUITY UPLC system (WATERS) was used for separation by chromatography. Aliquots (10 μL) of the prepared analysis sample was injected into an AQCUITY UPLC BEH C18 column (2.1×100 mm, 1.7 μm). The separation by chromatography was performed under gradient conditions shown in the following table at a mobile phase flow rate of 0.5 mL/minute.
(§4) The LC column eluate obtained in step 2-1 was introduced into an LTQ XL ion trap mass spectrometer. Ionization was performed in an ESI positive mode (a mode for detecting positively charged ions). The measurement conditions used are shown below (measurement conditions A).
The measurement conditions used are shown below (measurement conditions B).
Among the peaks appearing in the final chromatogram, peaks other than the peaks also appearing in the final chromatogram for the control (FIG. 2 or 13) are considered to be the peaks of trapping agent-reactive metabolite adducts.

[3] = rat, 60 min, 10 μmol/L, pH 7.4; remark: listed apart in the source
Procedure: as §1
as §2, with “minutes,” for “minutes, a 50 mmol/L aqueous dithiothreitol solution (100 μL, 5 μmol) was added to the incubation mixture, and”, “water,” for “solution,”
as §3, with “under the” for “under”, “TABLE 3” for “the following table”
as §4
The measurement conditions used are shown below (measurement conditions E).
Among the peaks appearing in the final chromatogram, peaks other than the peaks also appearing in the final chromatogram for the control (FIG. 46) are considered to be the peaks of trapping agent-reactive metabolite adducts.

[4] = Reactive metabolite trapping test with glutathione ethyl ester only, data dependent scan mode with Dynamic Exclusion ON (Comparative Example 8); type: in vitro ADME; conditions: rat liver microsomes
Procedure: Omeprazole was used as the object compound. Measurement was performed in the same manner as in Comparative Example 1 except that the MS/MS measurement corresponding to (step 2-3) was performed in a data dependent scan mode (a Dynamic Exclusion ON mode) in which the MS/MS measurement was performed on ions in descending order of intensity. In the data dependent scan mode (Dynamic Exclusion ON mode), ions for a peak with the strongest intensity among the peaks in a first spectrum are subjected to MS/MS measurement three times. Then these ions are eliminated, and ions with the next strongest intensity are subjected to MS/MS measurement three times. This processing is repeated in order of intensity. The measurement conditions used are as follows (measurement conditions D).

NUMBER OF IDENTIFIED REACTIVE METABOLITES (COMPARATIVE EXAMPLES, GSHEE) [1]	judgement of reactive metabolite formation [2]	NUMBER OF IDENTIFIED REACTIVE METABOLITES (EXAMPLES) [2]	NUMBER OF IDENTIFIED REACTIVE METABOLITES (COMPARATIVE EXAMPLES, [13C2, 15N]GSH) [3]	number of types of reactive metabolite found [4]	SMILES
1					O=C(O)Cc1ccccc1Nc1c(Cl)cccc1Cl [diclofenac]
1	positive	2	2	one	COc1ccc2[nH]c([S+]([O-])Cc3ncc(C)c(OC)c3C)nc2c1 (centres unmarked) [omeprazole]
3	positive	3	2		O=c1c(O)c(-c2ccc(O)c(O)c2)oc2cc(O)cc(O)c12 [quercetin]
0	positive	1	1		O=C(O)COc1ccc(C(=O)c2cccs2)c(Cl)c1Cl [tienilic acid]
